Numbered stars: 1 amine (or outer) side, 2 acyl side, 3 side chain; on linkers, the order of the positions; unused ones are H or OH. Bridge positions count the residues as written; N and C are the ends. Square brackets hold non-standard residues; d marks the D form. Peptide text beside a SMILES is read from it. ξ: configuration not given here. ξαMeNle(6-ylidene) = CC(CCCC=[*:3])(N[*:1])C(=O)[*:2]; Nle = CCCC[C@H](N)C(=O)O
Tests used:
[1] = tested on: A375; type: cell-based, human; details: 24 h
Procedure, shortened: (§1)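 CellTiter-Glo luminescence, expressed as % viable versus DMSO-only wells, gave EC50s after 24 h macrocycle exposure at 37 °C, 5% CO2. Final doses were 0.6–20 μM without serum or 1.5–50 μM in 2% human serum; 4000 cells/well in Opti-MEM; duplicate wells.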

[2] = tested on: DHL-6; type: cell-based, human; details: 24 h
Procedure, shortened: as §1

[3] = tested on: Jurkat; type: cell-based, human; details: 24 h
Procedure, shortened: as §1

[4] = tested on: MDA-MB231-Met; type: cell-based, human; details: 24 h
Procedure, shortened: as §1

[5] = tested on: MM1S; type: cell-based, human; details: 24 h
Procedure, shortened: as §1

[6] = tested on: Molt-4; type: cell-based, human; details: 24 h
Procedure, shortened: as §1

[7] = tested on: NCI-H82 (SCLC-MCL1+); type: cell-based, human; details: 24 h
Procedure, shortened: as §1

[8] = tested on: OVCAR8; type: cell-based, human; details: 24 h
Procedure, shortened: as §1

[9] = tested on: PC3; type: cell-based, human; details: 24 h
Procedure, shortened: as §1

[10] = tested on: RS4;11; type: cell-based, human; details: 24 h
Procedure, shortened: as §1

[11] = tested on: Raji; type: cell-based, human; details: 24 h
Procedure, shortened: as §1

[12] = tested on: SEMK2; type: cell-based, human; details: 24 h
Procedure, shortened: as §1

[13] = tested on: leukemia/lymphoma human cell lines; test: MTT cell viability assay, leukemia/lymphoma lines; type: cell-based; details: 20 μM, MTT 48 hrs, FIG. 1
Procedure: (§2) Cell viability assays shown in FIGS. 1-32 were performed according to the following protocol. Tumor cell lines were grown in specific serum-supplemented media (growth media) as necessary. A day prior to the initiation of the study, cells were plated at optimal cell density (15,000 to 25,000 cells/well) in 200 μl growth media in microtiter plates. The next day, cells were washed twice in serum-free/phenol red-free RPMI complete media (assay buffer) and a final volume of 100 μl assay buffer was added to each well. Human peripheral blood lymphocytes (hPBLs) were isolated from Buffy coats (San Diego Blood Bank) using Ficoll-Paque gradient separation and plated on the day of the experiment at 25,000 cells/well.
(§3) Peptidomimetic macrocycles were diluted from 1 mM stocks (100% DMSO) in sterile water to prepare 400 μM working solutions. The peptidomimetic macrocycles and controls were then diluted 10 or […] or alternatively serially two-fold diluted in assay buffer in dosing plates to provide concentrations of either 40 and 20 μM or between 1.2 and 40 μM, respectively. […]
(§4) Towards the end of the 4 hour incubation time, 22 μl FBS was added to each well for a total concentration of 10% FBS. […] At the end of the incubation period, MTT assay was performed according to manufacturer's instructions (Sigma, catalog #M2128) and absorbance was measured at 560 nm using Dynex Opsys MR Plate reader. […]

[14] = tested on: NCI-H220; test: MTT cell viability assay, NCI-H220; type: cell-based, human; details: 20 μM, MTT 48 hrs, FIG. 1
Procedure: as §2, §3, §4

[15] = tested on: NCI-H128; test: MTT cell viability assay, NCI-H128; type: cell-based, human; details: 20 μM, MTT 48 hrs, FIG. 1
Procedure: as §2, §3, §4

[16] = tested on: NCI-H146; test: MTT cell viability assay, NCI-H146; type: cell-based, human; details: 20 μM, MTT 48 hrs, FIG. 1
Procedure: as §2, §3, §4

[17] = tested on: U251; test: MTT cell viability assay, U251; type: cell-based, human; details: 20 μM, MTT 48 hrs, FIG. 1
Procedure: as §2, §3, §4

[18] = tested on: resting human peripheral lymphocytes (hPBLs); test: Cell viability of resting hPBLs; type: cell-based; details: FIG. 16
Procedure: as §2, §3, §4

`CCCC[C@H](NC(=O)C1(C)CCCC=CCCCC(C)(NC(=O)[C@H](C)NC(=O)[C@H](CC(C)C)NC(=O)[C@H](Cc2c[nH]cn2)NC(=O)[C@H](CCCNC(=N)N)NC(=O)[C@H](C)NC(=O)[C@@H](NC(=O)[C@H](CC(N)=O)NC(=O)[C@H](CCCNC(=N)N)NC(=O)[C@@H](NC(=O)[C@@H](NC(=O)[C@H](CC(=O)O)NC(C)=O)[C@@H](C)CC)[C@@H](C)CC)[C@@H](C)CC)C(=O)N[C@@H](C(C)C)C(=O)NCC(=O)N[C@@H](CC(=O)O)C(=O)N1)C(=O)N[C@@H](CC(=O)O)C(=O)N[C@@H](CCCNC(=N)N)C(=O)N[C@@H](CO)C(=O)N[C@H](C(N)=O)[C@@H](C)CC` (stereo partly drawn) [SP-1] (Ac-DIIRNIARHLA[ξαMeNle(6-ylidene)]VGD[ξαMeNle(6-ylidene)][Nle]DRSI-NH2; staple 12-16) was tested, and the EC50 [1] was 11 µM, the EC50 [2] was 7 µM and the EC50 [3] was 2.5 µM. For the same compound, the EC50 [4] was 9.8 µM, the EC50 [5] was 3.5 µM and the EC50 [6] was 4.3 µM. The EC50 [7] was 2.5 µM, the EC50 [8] was 20 µM and the EC50 [9] was 20 µM. It also gave an EC50 [10] greater than 20 µM, an EC50 [11] of 13 µM and an EC50 [12] of 10 µM. The “sensitivity of all leukemia/lymphoma lines tested” value [13] was “sensitive”, the “apoptosis of NCI-H220 (SCLC)” value [14] was “induced apoptosis” and the “apoptosis of NCI-H128 (SCLC)” value [15] was “induced apoptosis”. The “apoptosis of NCI-H146 (SCLC)” value [16] was “induced apoptosis”, the “sensitivity of U251 (glioma)” value [17] was “resistant” and the “programmed cell death of resting hPBLs” value [18] was “does not induce programmed cell death”.
